Source: patent US11970474B2, “Substituted benzodiazoles and use thereof in therapy” (THOMAS HELLEDAYS STIFTELSE FÖR MEDICINSK FORSKNING, priority 2018, dated 2024)

What was measured:
OGG1 = OGG1 (Homo sapiens (Human), UniProt O15527); test: In vitro OGG1 activity assay; assay type: biochemical; details: 800 pM OGG1 enzyme, 2 nM human APEX1, 10 nM 8-oxoA:C substrate
In short: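 Fluorescence-release assay on a duplex oligonucleotide carrying an OGG1 substrate base beside a fluorophore, quenched from the complementary strand. Excess APEX1 cleaves the abasic site left by base excision, melting the duplex and unquenching the fluorophore. Compounds in DMSO were dispensed before enzyme and substrate, and fluorescein signal was read.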

786-0 = test: Cell viability assay (resazurin); assay type: cell-based; details: Homo sapiens, 120 h, Cancer, Renal Cell Adenocarcinoma, five day incubation
Experimental: (§1) A dilution series of compound or vehicle are transferred to 96-well plates. Cells are seeded into the plate (500-10,000 cells/well) in suitable media and incubated for five days in 5% CO2 at 37° C. Thereafter, resazurin (diluted in suitable medium or PBS) are added to a final concentration 10 μg/ml resazurin at 37° C. for 2-4 hours before measuring the fluorescence (Ex544/Em590), essentially as described (Riss, Terry L. et al., “Cell Viability Assays.” In Assay Guidance Manual, ed. G. Sitta Sittampalam, et al. Bethesda (Md.): Eli Lilly & Company and the National Center for Advancing Translational Sciences (2004) http://www.ncbi.nlm.nih.gov/books/NBK144065/).
(§2) The compounds to be tested are nano-dispensed in duplicate in 11 concentrations, directly in 384-well cell plates, with a final DMSO concentration<1%. Cells are seeded in cell plates, pre-dispensed with compounds (200-2500 cells/well in 50 μl). After three or five days culture in 5% CO2, 37° C., resazurin diluted in PBS is added, 10 μl/well, to a final concentration of 10 μg/ml and cells are incubated 2-4 hours before measuring fluorescence (Ex544/Em590), as described (ibid.). Results obtained for selected example compounds described herein on cancer- and non-transformed cell lines are provided in the table below (Table 3) and summarized in FIG. 1. Where indicated, combination indexes was measured with CompuSyn software (www.compusyn.com) by the method of Chou-Talalay (Chou, Ting-Chao., Cancer Research, 70(2), 440-46 (2010)).

A3 = test: Cell viability assay (resazurin); assay type: cell-based; details: 120 h, Cancer, Acute lymphoblastic leukemia, five day incubation
Experimental: as §1, §2

BJ Tert = test: Cell viability assay (resazurin); assay type: cell-based; details: 120 h, Normal, immortalized fibroblast, five day incubation
Experimental: as §1, §2

CCRF-CEM = test: Cell viability assay (resazurin); assay type: cell-based; details: Homo sapiens, 120 h, Cancer, Acute Lymphoblastic Leukemia, five day incubation
Experimental: as §1, §2

DU145 = test: Cell viability assay (resazurin); assay type: cell-based; details: Homo sapiens, DU-145, 120 h, Cancer, Prostate carcinoma, five day incubation
Experimental: as §1, §2

Daudi = test: Cell viability assay (resazurin); assay type: cell-based; details: Homo sapiens, 120 h, Cancer, Burkitt's Lymphoma, five day incubation
Experimental: as §1, §2

HL-60 = test: Cell viability assay (resazurin); assay type: cell-based; details: Homo sapiens, 120 h, Cancer, Acute Promyelocytic Leukemia, five day incubation
Experimental: as §1, §2

HT-29 = test: Cell viability assay (resazurin); assay type: cell-based; details: Homo sapiens, 120 h, Cancer, Colorectal Adenocarcinoma, five day incubation
Experimental: as §1, §2

Jurkat = test: Cell viability assay (resazurin); assay type: cell-based; details: Homo sapiens, 120 h, Cancer, Acute lymphoblastic leukemia, five day incubation
Experimental: as §1, §2

LCL#2 = test: Cell viability assay (resazurin); assay type: cell-based; details: 120 h, Normal, Epstein-Barr-virus-transformed lymphoblastoid cell lines, five day incubation
Experimental: as §1, §2

MV4-11 = test: Cell viability assay (resazurin); assay type: cell-based; details: Homo sapiens, 120 h, Cancer, acute monocytic leukemia, five day incubation
Experimental: as §1, §2

PC3 = test: Cell viability assay (resazurin); assay type: cell-based; details: Homo sapiens, PC-3, 120 h, Cancer, Prostate adenocarcinoma, five day incubation
Experimental: as §1, §2

RFX393 = test: Cell viability assay (resazurin); assay type: cell-based; details: 120 h, Cancer, Renal cancer cell lines, five day incubation
Experimental: as §1, §2

Reh = test: Cell viability assay (resazurin); assay type: cell-based; details: Homo sapiens, 120 h, Cancer, Acute Lymphocytic Leukemia, five day incubation
Experimental: as §1, §2

SW480 = test: Cell viability assay (resazurin); assay type: cell-based; details: Homo sapiens, 120 h, Cancer, Colorectal Adenocarcinoma, five day incubation
Experimental: as §1, §2

MEF Ogg1 (−/−) = test: Cell viability assay (resazurin); assay type: cell-based; details: 120 h, Normal, mouse embryonic fibroblast, five day incubation
Experimental: A dilution series of compound or vehicle are transferred to 96-well plates. Cells are seeded into the plate (500-10,000 cells/well) in suitable media and incubated for five days in 5% CO2 at 37° C.
The compounds to be tested are nano-dispensed in duplicate in 11 concentrations, directly in 384-well cell plates, with a final DMSO concentration<1%.

MLE12 cells = test: Cell viability assay in MLE12 cells (resazurin); assay type: cell-based, mouse; details: Mus musculus, MLE12, 24 h, TNF-α 20 ng/ml, resazurin added after 24 hours culture
In short: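 MLE12 cells (7500 cells/well) were seeded onto 11-point duplicate compound dose-responses, with TNF-α (final 20 ng/ml) added after 1 hour at 37° C. After 24 hours, resazurin was added for 6 hours and resorufin fluorescence read (ex544 nm/em595 nm). EC50 values were calculated by curve fitting.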

OGG1, sequence (O15527 whole entry): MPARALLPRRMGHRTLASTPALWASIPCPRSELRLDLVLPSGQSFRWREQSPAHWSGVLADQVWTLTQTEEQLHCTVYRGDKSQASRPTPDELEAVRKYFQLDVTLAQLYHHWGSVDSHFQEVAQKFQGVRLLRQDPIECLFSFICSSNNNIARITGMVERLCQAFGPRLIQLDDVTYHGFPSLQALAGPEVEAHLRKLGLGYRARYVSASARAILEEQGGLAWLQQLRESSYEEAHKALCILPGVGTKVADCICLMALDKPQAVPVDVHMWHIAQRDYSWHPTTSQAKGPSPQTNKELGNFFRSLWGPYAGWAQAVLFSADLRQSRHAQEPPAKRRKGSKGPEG

IC50 (OGG1) [µM] | EC50 (786-0) [µM] | EC50 (CCRF-CEM) [µM] | EC50 (DU145) [µM] | EC50 (Daudi) [µM] | EC50 (HL-60) [µM] | EC50 (HT-29) [µM] | EC50 (Jurkat) [µM] | EC50 (MV4-11) [µM] | EC50 (PC3) [µM] | EC50 (SW480) [µM] | SMILES | EC50 (A3) [µM] | EC50 (BJ Tert) [µM] | EC50 (LCL#2) [µM] | EC50 (RFX393) [µM] | EC50 (Reh) [µM] | EC50 (MEF Ogg1 (−/−)) [µM] | IC50 (MLE12 cells) [µM]
0.766 | 15 | 11 | 11 | 10 | 14 | 23 | 14 | 6.5 | 19 | 20 | O=C(Nc1ccc(Cl)c(Cl)c1)N1CCC(n2c(=O)[nH]c3c(-c4ccc(CO)nc4)cccc32)CC1 [Example 28, N-(3,4-dichlorophenyl)-4-{4-[6-(hydroxymethyl)pyridin-3-yl]-2-oxo-2,3-dihydro-1H-1,3-benzodiazol-1-yl}piperidine-1-carboxamide] | 7.9 | 24 | 41 | 14 | 15 | 46 | 7.18
0.149 | 33 | 7.9 | 3.1 | 12 | 24 | 22 | 15 | 9.6 | 29 | 30 | Cc1cc(NC(=O)N2CCC(n3c(=O)[nH]c4c(Br)cccc43)CC2)ccc1I [Example 50, 4-(4-Bromo-2-oxo-2,3-dihydro-1H-1,3-benzodiazol-1-yl)-N-(4-iodo-3-methylphenyl)piperidine-1-carboxamide] | 9.8 | 31 | 32 | 12 | 17 | 34 | 7.23

SMILES | IC50 (OGG1) [µM] | EC50 (786-0) [µM] | EC50 (CCRF-CEM) [µM] | EC50 (DU145) [µM] | EC50 (Daudi) [µM] | EC50 (HL-60) [µM] | EC50 (HT-29) [µM] | EC50 (Jurkat) [µM] | EC50 (MV4-11) [µM] | EC50 (PC3) [µM] | EC50 (SW480) [µM] | EC50 (A3) [µM] | EC50 (BJ Tert) [µM] | EC50 (LCL#2) [µM] | EC50 (RFX393) [µM] | EC50 (Reh) [µM] | EC50 (MEF Ogg1 (−/−)) [µM] | IC50 (MLE12 cells) [µM]
O=C(Nc1ccc(I)cc1)N1CCC(n2c(=O)[nH]c3c(Br)cccc32)CC1 [Example 13, 4-(4-Bromo-2-oxo-2,3-dihydro-1H-1,3-benzodiazol-1-yl)-N-(4-iodophenyl)piperidine-1-carboxamide] | 0.359 | 30 | 15 | 13 | 13 | 22 | 24 | 13 | 9.4 | 35 | 33 | 11 | 34 | 25 | 20 | 19 | 48 | 7.67
